According to ChEMBL document CHEMBL3992559, “Human carbonic anhydrase inhibitory profile of mono- and bis-sulfonamides synthesized via a direct sulfochlorination of 3- and 4-(hetero)arylisoxazol-5-amine scaffolds” (Bioorg Med Chem, 2017):

Key:
Carbonic anhydrase 1 = Carbonic anhydrase 1 (Homo sapiens, UniProt P00915); experiment: Inhibition of recombinant human carbonic anhydrase-1 assessed as reduction in enzyme-catalyzed hydration activity using CO2 as substrate preincubated for 15 mins followed substrate addition measured after 10 to 100 sec by phenol red dye based stopped flow assay
Carbonic anhydrase 1, sequence (P00915 whole entry): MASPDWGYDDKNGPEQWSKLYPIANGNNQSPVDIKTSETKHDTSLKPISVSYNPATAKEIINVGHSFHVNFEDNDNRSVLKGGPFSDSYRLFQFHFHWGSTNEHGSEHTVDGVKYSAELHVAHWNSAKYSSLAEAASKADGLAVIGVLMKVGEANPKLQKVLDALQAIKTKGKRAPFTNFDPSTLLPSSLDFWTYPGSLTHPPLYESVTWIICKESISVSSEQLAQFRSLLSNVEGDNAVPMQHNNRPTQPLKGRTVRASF

Carbonic anhydrase 4 = Carbonic anhydrase 4 (Homo sapiens, UniProt P22748); experiment: Inhibition of recombinant human carbonic anhydrase-4 assessed as reduction in enzyme-catalyzed hydration activity using CO2 as substrate preincubated for 15 mins followed substrate addition measured after 10 to 100 sec by phenol red dye based stopped flow assay
Carbonic anhydrase 4, sequence (P22748 whole entry): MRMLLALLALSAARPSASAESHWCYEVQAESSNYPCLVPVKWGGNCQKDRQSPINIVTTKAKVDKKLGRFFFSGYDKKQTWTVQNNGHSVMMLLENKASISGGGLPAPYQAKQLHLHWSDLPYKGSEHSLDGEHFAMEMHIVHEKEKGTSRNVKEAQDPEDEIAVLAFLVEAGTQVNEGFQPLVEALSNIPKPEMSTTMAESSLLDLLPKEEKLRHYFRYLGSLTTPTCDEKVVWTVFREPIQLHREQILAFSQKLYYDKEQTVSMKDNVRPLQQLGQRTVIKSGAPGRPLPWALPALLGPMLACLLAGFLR

Carbonic anhydrase 7 = Carbonic anhydrase 7 (Homo sapiens, UniProt P43166); experiment: Inhibition of recombinant human carbonic anhydrase-7 assessed as reduction in enzyme-catalyzed hydration activity using CO2 as substrate preincubated for 15 mins followed substrate addition measured after 10 to 100 sec by phenol red dye based stopped flow assay
Carbonic anhydrase 7, sequence (P43166 whole entry): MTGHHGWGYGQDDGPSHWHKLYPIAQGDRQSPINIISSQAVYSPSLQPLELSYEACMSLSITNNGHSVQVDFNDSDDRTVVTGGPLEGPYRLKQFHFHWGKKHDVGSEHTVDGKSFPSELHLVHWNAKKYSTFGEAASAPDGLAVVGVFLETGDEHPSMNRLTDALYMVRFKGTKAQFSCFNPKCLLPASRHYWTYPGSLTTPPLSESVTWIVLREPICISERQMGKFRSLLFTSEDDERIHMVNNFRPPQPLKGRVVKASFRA

Carbonic anhydrase 2 = Carbonic anhydrase 2 (Homo sapiens, UniProt P00918); experiment: Inhibition of recombinant human carbonic anhydrase-2 assessed as reduction in enzyme-catalyzed hydration activity using CO2 as substrate preincubated for 15 mins followed substrate addition measured after 10 to 100 sec by phenol red dye based stopped flow assay

Measured: Ki

COc1ccc(-c2c(C)noc2NC(C)=O)cc1S(N)(=O)=O
> 10 µM: all assays above

COc1ccc(S(N)(=O)=O)c(-c2noc(N)c2S(N)(=O)=O)c1
> 10 µM: Carbonic anhydrase 1 | Carbonic anhydrase 4 | Carbonic anhydrase 7

CC(=O)Nc1onc(C)c1-c1ccc(S(N)(=O)=O)c(C)c1
> 10 µM: Carbonic anhydrase 4

COc1ccc(-c2cc(NC(C)=O)on2)cc1S(N)(=O)=O
> 10 µM: all assays above

CC(=O)Nc1cc(-c2cc(S(N)(=O)=O)c(C)s2)no1
> 10 µM: Carbonic anhydrase 1 | Carbonic anhydrase 4 | Carbonic anhydrase 7

CC(=O)Nc1cc(-c2ccc(C)c(S(N)(=O)=O)c2)no1
> 10 µM: Carbonic anhydrase 1 | Carbonic anhydrase 4

COc1ccc(-c2noc(N)c2S(N)(=O)=O)cc1S(N)(=O)=O
> 10 µM: Carbonic anhydrase 1 | Carbonic anhydrase 7

COc1ccc(S(N)(=O)=O)c(-c2c(C)noc2NC(C)=O)c1
> 10 µM: all assays above

COc1ccc(S(N)(=O)=O)c(-c2cc(NC(C)=O)on2)c1
> 10 µM: all assays above
